Legend:
Assay type in all cases: cell-based
[1] = molecular target: human α1H T-type channels (Homo sapiens, UniProt O95180); assay: T-type calcium channel block, whole cell patch clamp, α1H; details: HEK cells stably expressing human α1H; mainly non-inactivated protocol; values above 10,000 nM represented as 10000
Procedure, shortened: (§1)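 Using standard patch-clamp, T-type currents were recorded from stably transfected human α1G or α1H HEK 293 cells. Separate non-inactivating and inactivation voltage protocols distinguished resting from voltage-dependent block by locally applied compound in 0.1-0.01% DMSO.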

[2] = molecular target: N-type calcium channel subunits (α1B, α2δ, and β3a) (Homo sapiens, UniProt Q00975); assay: Block of Cav2.2 channel, whole cell voltage clamp, manual and PatchXpress; details: Table 5; table follows Assay Example 3 (whole cell voltage clamp / PatchXpress); assay not given
Procedure, shortened: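 Percent block taken as current amplitude ratio with versus without compound, applied in rising doses; IC50 fitted where one cell received multiple doses. Protocol: 50 ms pulses to +20 mV at 0.067 Hz from […] or −90 mV holding; P/n leak subtraction, no junction-potential correction; manual and PatchXpress recordings.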

[3] = molecular target: human α1G T-type channels (Homo sapiens, UniProt O43497); assay: T-type calcium channel block, whole cell patch clamp, α1G; details: HEK cells stably expressing human α1G; mainly non-inactivated protocol; values above 10,000 nM represented as 10000
Sequence of human α1G T-type channels (O43497 whole entry): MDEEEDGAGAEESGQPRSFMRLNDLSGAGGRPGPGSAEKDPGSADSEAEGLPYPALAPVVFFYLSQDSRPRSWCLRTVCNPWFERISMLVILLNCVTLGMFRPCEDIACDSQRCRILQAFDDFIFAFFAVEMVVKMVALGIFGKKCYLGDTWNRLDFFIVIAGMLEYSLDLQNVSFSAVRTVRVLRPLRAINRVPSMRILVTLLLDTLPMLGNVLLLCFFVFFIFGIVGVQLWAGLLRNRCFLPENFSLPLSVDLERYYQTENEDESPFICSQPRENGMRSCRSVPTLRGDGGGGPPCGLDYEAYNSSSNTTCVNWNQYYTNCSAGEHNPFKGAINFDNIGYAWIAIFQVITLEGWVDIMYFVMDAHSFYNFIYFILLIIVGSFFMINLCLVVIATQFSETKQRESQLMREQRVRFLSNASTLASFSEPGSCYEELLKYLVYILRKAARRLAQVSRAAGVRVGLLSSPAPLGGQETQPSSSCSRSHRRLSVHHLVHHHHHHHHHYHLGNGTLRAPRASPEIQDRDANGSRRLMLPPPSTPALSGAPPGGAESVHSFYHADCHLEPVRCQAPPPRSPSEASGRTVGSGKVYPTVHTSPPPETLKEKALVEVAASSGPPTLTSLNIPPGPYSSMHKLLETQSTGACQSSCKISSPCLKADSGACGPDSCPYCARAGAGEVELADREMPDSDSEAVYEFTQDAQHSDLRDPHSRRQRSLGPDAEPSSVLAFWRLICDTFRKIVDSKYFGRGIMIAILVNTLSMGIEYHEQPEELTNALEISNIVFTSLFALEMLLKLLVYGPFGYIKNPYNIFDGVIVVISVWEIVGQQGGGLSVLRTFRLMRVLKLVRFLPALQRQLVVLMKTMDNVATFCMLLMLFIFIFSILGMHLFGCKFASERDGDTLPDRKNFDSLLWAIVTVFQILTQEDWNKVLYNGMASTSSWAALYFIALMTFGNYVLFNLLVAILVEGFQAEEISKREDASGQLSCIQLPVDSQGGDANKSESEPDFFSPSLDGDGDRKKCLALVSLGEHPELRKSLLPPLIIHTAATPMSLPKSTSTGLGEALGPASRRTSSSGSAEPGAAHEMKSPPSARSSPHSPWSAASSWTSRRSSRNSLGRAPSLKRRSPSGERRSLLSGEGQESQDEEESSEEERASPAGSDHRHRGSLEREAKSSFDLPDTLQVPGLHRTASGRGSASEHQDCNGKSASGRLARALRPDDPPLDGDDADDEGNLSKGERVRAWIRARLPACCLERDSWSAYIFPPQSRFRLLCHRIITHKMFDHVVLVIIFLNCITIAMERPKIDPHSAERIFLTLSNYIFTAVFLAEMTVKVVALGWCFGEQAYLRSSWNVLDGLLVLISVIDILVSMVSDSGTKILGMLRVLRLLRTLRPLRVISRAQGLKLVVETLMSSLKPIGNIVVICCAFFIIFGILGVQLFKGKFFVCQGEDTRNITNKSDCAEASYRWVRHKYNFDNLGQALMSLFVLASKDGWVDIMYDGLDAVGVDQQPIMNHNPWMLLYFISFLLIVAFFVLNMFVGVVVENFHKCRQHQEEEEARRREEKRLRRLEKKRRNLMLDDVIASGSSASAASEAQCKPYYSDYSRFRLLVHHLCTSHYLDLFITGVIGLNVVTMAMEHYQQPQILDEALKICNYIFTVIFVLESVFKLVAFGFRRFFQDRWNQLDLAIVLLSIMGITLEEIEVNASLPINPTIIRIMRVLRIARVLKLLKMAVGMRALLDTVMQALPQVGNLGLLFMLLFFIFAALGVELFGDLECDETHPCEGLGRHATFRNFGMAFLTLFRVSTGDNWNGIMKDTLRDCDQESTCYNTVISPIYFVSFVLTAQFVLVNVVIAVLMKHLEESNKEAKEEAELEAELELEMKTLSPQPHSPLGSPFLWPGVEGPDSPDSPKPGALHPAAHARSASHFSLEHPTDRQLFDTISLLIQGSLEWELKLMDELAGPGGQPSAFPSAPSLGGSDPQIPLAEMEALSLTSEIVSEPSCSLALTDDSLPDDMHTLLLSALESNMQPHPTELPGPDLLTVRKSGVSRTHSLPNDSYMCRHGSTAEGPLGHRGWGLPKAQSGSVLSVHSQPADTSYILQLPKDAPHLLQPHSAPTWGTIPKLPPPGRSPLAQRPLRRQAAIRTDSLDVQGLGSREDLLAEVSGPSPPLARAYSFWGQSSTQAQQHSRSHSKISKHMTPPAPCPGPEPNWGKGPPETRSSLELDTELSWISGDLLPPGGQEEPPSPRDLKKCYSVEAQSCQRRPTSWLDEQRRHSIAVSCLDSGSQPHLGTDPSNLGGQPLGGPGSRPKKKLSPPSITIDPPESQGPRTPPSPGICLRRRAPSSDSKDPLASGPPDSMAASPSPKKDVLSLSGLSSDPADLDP
Procedure, shortened: as §1

Sequence of human α1H T-type channels (O95180 whole entry): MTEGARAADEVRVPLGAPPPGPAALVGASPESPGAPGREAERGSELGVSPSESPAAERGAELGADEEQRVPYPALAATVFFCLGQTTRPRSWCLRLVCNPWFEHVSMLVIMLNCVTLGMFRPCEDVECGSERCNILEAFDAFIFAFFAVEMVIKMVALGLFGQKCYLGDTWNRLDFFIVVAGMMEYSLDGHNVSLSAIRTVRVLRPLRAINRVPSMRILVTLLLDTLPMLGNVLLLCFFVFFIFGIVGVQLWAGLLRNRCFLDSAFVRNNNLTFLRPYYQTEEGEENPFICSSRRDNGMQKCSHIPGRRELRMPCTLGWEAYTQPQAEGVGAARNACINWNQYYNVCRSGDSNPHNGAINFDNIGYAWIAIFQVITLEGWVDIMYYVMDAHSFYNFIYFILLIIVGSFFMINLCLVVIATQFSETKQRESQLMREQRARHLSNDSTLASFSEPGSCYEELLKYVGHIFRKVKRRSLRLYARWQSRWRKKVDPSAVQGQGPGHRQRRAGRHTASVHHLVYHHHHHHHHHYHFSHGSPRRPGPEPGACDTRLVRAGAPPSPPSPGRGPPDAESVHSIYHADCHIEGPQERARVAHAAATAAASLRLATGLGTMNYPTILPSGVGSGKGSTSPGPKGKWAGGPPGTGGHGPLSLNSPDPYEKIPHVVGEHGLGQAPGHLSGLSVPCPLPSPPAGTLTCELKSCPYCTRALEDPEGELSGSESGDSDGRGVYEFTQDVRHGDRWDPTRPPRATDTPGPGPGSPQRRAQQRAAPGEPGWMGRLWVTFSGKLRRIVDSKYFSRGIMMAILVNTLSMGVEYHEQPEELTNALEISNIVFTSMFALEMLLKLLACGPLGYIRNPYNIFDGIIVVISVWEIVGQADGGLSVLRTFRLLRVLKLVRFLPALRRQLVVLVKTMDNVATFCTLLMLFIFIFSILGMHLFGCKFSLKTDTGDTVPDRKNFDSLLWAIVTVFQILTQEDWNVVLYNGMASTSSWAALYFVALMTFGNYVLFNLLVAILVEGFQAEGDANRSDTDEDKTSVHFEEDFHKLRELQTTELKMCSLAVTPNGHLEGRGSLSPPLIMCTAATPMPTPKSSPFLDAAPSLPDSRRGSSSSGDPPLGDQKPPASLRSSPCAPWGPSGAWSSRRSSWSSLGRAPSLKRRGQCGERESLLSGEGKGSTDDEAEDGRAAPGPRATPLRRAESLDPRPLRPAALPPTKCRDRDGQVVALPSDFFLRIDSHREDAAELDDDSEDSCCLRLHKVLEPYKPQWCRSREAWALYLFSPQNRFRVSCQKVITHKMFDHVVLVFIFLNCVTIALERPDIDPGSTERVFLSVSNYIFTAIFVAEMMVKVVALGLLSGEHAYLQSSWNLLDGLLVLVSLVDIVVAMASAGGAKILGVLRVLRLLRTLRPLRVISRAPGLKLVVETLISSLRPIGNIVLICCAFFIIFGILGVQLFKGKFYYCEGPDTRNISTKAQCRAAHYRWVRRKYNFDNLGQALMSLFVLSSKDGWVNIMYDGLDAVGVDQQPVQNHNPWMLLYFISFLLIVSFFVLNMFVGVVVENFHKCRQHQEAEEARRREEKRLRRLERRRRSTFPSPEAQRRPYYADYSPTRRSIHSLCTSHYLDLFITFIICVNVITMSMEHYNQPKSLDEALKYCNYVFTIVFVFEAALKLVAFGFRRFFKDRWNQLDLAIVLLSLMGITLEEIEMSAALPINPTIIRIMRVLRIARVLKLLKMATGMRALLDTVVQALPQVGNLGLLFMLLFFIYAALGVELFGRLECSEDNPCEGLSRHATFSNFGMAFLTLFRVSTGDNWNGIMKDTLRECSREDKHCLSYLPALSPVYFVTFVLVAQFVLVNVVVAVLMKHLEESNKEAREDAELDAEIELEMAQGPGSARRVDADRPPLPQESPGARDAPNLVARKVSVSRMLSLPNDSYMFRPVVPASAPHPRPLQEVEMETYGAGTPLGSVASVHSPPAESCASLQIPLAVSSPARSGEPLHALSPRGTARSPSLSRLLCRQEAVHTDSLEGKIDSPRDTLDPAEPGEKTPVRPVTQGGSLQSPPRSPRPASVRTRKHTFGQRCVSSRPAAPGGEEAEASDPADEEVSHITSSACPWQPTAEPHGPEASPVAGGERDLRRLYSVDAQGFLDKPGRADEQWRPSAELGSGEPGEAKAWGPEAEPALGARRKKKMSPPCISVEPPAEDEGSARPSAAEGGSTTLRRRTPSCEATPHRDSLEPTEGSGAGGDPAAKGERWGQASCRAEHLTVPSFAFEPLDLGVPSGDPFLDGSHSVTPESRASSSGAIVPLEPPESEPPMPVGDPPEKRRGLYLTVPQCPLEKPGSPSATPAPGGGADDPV

Compound | IC50 [1] [µM] | IC50 [2] [nM] | IC50 [3] [µM]
COc1cc(F)cc(C(=O)NC2CCC(C)(S(=O)(=O)c3cccc(C(F)(F)F)c3)CC2)c1 (stereo not drawn) [Compound 20, 3-fluoro-5-methoxy-N-(4-methyl-4-(3-(trifluoromethyl)phenylsulfonyl)cyclohexyl)benzamide] | 1.38 | 70 | 1.97
O=C(Nc1cccc(C(F)(F)F)n1)[C@H]1C[C@@H](S(=O)(=O)c2cccc(C(F)(F)F)c2)C1 [Compound 412, (1S,3S)-3-(3-(trifluoromethyl)phenylsulfonyl)-N-(6-(trifluoromethyl)pyridin-2-yl)cyclobutanecarboxamide] | 1.55 | 590 | 6.81
Cc1nc(C(F)(F)F)ccc1NC(=O)[C@H]1C[C@@H](S(=O)(=O)c2cccc(C(F)(F)F)c2)C1 [Compound 418, (1S,3S)-N-(2-methyl-6-(trifluoromethyl)pyridin-3-yl)-3-(3-(trifluoromethyl)phenylsulfonyl)cyclobutane carboxamide] | 2.87 | 3500 | > 10
CC1(S(=O)(=O)c2cccc(C(F)(F)F)c2)CCC(NC(=O)c2cc(C(F)(F)F)ccn2)CC1 (stereo not drawn) [Compound 21, N-(4-methyl-4-(3-(trifluoromethyl)phenylsulfonyl)cyclohexyl)-4-(trifluoromethyl)picolinamide] | 4.02 | 200 | 6.56
O=C(N[C@H]1CC[C@@H](S(=O)(=O)c2cccc(C(F)(F)F)c2)CC1)c1cc(-c2ccc(F)cc2)n[nH]1 [Compound 46, 3-(4-fluorophenyl)-N-((1S,4S)-4-(3-(trifluoromethyl)phenylsulfonyl)cyclohexyl)-1H-pyrazole-5-carboxamide] | 0.91 | 1060 | 1.25
O=C(N[C@H]1CC[C@@H](S(=O)(=O)c2cccc(C(F)(F)F)c2)CC1)c1ccnn1CC(F)(F)F [Compound 193, l-(2,2,2-trifluoroethyl)-N-((1S,4S)-4-(3-(trifluoromethyl)phenylsulfonyl)cyclohexyl)-1H-pyrazole-5-carboxamide] | 1.59 | 540 | 6.97
O=C(NC1CCC(S(=O)(=O)c2cccc(C(F)(F)F)c2)CC1)c1ccc(C(F)(F)F)nc1 (stereo not drawn) [Compound 8, 6-(trifluoromethyl)-N-(4-(3-(trifluoromethyl)phenylsulfonyl)cyclohexyl)nicotinamide] | 6.71 | 2300 | > 10
COc1cc(C(=O)NCC2(C)CCC(F)(S(=O)(=O)c3cccc(C(F)(F)F)c3)CC2)cc(Cl)n1 (stereo not drawn) [Compound 158, 2-chloro-N-((4-fluoro-1-methyl-4-(3-(trifluoromethyl)phenylsulfonyl)cyclohexyl)methyl)-6-methoxyisonicotinamide] | 7.2 | 480 | > 10
O=C(N[C@H]1CC[C@@](F)(S(=O)(=O)c2cc(F)cc(C(F)(F)F)c2)CC1)c1cn2cc(C(F)(F)F)ccc2n1 [Compound 332, N-((1S,4S)-4-fluoro-4-(3-fluoro-5-(trifluoromethyl)phenylsulfonyl)cyclohexyl)-6-(trifluoromethyl)imidazo[l,2-a]pyridine-2-carboxamide] | 0.78 | 620 | 1.56
O=C(NC[C@H]1CC[C@@H](S(=O)(=O)c2cccc(C(F)(F)F)c2)CC1)c1cc(F)cc(Cl)c1 [Compound 29, 3-chloro-5-fluoro-N-(((1S,4S)-4-(3-(trifluoromethyl)phenylsulfonyl)cyclohexyl)methyl)benzamide] | 0.43 | 610 | 0.26
CN(C(=O)CNC1CCC(S(=O)(=O)c2cccc(C(F)(F)F)c2)CC1)C(C)(C)C (stereo not drawn) [Compound 23, N-tert-butyl-N-methyl-2-(4-(3-(trifluoromethyl)phenylsulfonyl)cyclohexylamino)acetamide] | 1.19 | 240 | 2.79

Next, values leading:

IC50 [1] [µM] | IC50 [2] [nM] | IC50 [3] [µM] | Compound
7.29 | 4630 | > 10 | Cc1cc(NC(=O)CN[C@H]2CC[C@@H](S(=O)(=O)c3cccc(C(F)(F)F)c3)CC2)on1 [Compound 54, N-(3-methylisoxazol-5-yl)-2-((1S,4S)-4-(3-(trifluoromethyl)phenylsulfonyl)cyclohexylamino)acetamide]
0.67 | 350 | 0.45 | O=C(N[C@H]1CC[C@@](F)(S(=O)(=O)c2cccc(OC(F)(F)F)c2)CC1)c1cncc(C(F)(F)F)c1 [Compound 252, N-((1S,4S)-4-fluoro-4-(3-(trifluoromethoxy)phenylsulfonyl)cyclohexyl)-5-(trifluoromethyl)nicotinamide]
> 10 | 210 | 2.79 | O=C(NC1CCC(S(=O)(=O)c2cccc(C(F)(F)F)c2)CC1)c1cc(F)cc(Cl)c1 (stereo not drawn) [Compound 26, 3-chloro-5-fluoro-N-(4-(3-(trifluoromethyl)phenylsulfonyl)cyclohexyl)benzamide]
5.92 | 3830 | > 10 | O=C(Nc1ccc(Oc2ccc(C(F)(F)F)cn2)nc1)[C@H]1C[C@H](S(=O)(=O)c2cccc(C(F)(F)F)c2)C1 [Compound 400, (1R,3R)-3-(3-(trifluoromethyl)phenylsulfonyl)-N-(6-(5-(trifluoromethyl)pyridin-2-yloxy)pyridin-3-yl) cyclobutanecarboxamide]
> 10 | 460 | > 10 | CC1(CNCC(=O)NC(C)(C)C)CCC(F)(S(=O)(=O)c2cccc(C(F)(F)F)c2)CC1 (stereo not drawn) [Compound 159, N-tert-butyl-2-((4-fluoro-1-methyl-4-(3-(trifluoromethyl)phenylsulfonyl)cyclohexyl)methylamino)acetamide]
9.18 | 140 | > 10 | CC(C)(C)NC(=O)CNC1CCC(S(=O)(=O)c2cccc(C(F)(F)F)c2)CC1 (stereo not drawn) [Compound 16, N-tert-butyl-2-(4-(3-(trifluoromethyl)phenylsulfonyl)cyclohexylamino)acetamide]
0.54 | 510 | 0.35 | 3-chloro-4-fluoro-N-((1R,4R)4-(3- (trifluoromethyl)phenylsulfonyl) cyclohexyl)benzamide [Compound 124]
0.71 | 1250 | 2.02 | O=C(Nc1cncc(Cl)c1)[C@H]1C[C@@H](S(=O)(=O)c2cccc(C(F)(F)F)c2)C1 [Compound 420, (1S,3S)-N-(5-chloropyridin-3-yl)-3-(3-(trifluoromethyl)phenylsuIfonyl)cyclobutane carboxamide]
1.85 | 1630 | 4.77 | Cc1nn(C)c(C)c1S(=O)(=O)N[C@H]1CC[C@@](F)(S(=O)(=O)c2cccc(C(F)(F)F)c2)CC1 [Compound 293, N-((1S,4S)-4-fluoro-4-(3-(trifluoromethyl)phenylsulfonyl)cyclohexyl)-1,3,5-trimethyl-1H-pyrazole-4-sulfonamide]
1.98 | 3210 | 5.02 | O=C(CN[C@H]1C[C@H](CS(=O)(=O)c2cccc(C(F)(F)F)c2)C1)NC1CCCCC1 [Compound 353, N-cyclohexyl-2-((1R,3R)-3-((3-(trifluoromethyl)phenylsulfonyl)methyl)cyclobutylamino)acetamide]

— patent publication US20120245137A1 (Zalicus Pharmaceuticals Ltd., priority 2009, published 2012)
